Laboratory results as given in article PMC11603075 (Communications Biology, 2024).

Tests used:
[1] = system: KDM4A1–1064; test: MALDI–TOF MS product formation, full length KDM4A1–1064; format: biochemical, human; settings: 60 min; for % product formation: 1 µM enzyme, 10 µM peptide
Procedure: Supplementary Figure 5 H2aR3me2a is a substrate of full length KDM4A. (a) Representative MALDI–T OF
MS (60 -minute incubation) (from top to bottom) K DM4A 1–1064, KDM4A1–35 9 and KDM4E1–337 w it h H 2 a( 1–
Representative data are shown from n = 3 (independent assays). Charge state of labelled ions: [MH]+. (b)
Bar graph comparing % product format ion of H2a(1 –20)R3me2a by KDM4A1–10 64, KDM4A1–359 and KDM4E1–
33 7, analysed by MALDI–TOF MS. n = 2/3 (independent assays). Conditions: 1 µM KDM4A1–359 and KDM4E1–
(NH4)2Fe(SO4)2, and 50 mM HEPES (pH 7.5), 1 mM TCEP, 0.02% (v/v) Triton-X . […]

[2] = system: KDM5A; test: MALDI–TOF MS demethylation/+16 Da assay, KDM5A; format: biochemical, human; settings: 90 min
Description: Fig. 2 Histone H2a fragments are KDM5 and KDM4 substrates. […] See Supplementary Table 6 and Supplementary Fig. 2 for assay conditions and quantification, respectively. […] 0-minute MS spectrum in black, 60/90-minute spectrum in red.
MS-based screening assays with peptides and calf thymus histones were as reported; see Supplementary Table 6 for conditions. Time course assays were based on reported procedures. In brief, equal volumes of the enzyme and substrate solutions were combined to initiate the reaction; 10 µL of 2% (v/v) formic acid (HCOOH) in ddH2O or 100% methanol was added to 10 µL of the reaction mixture to quench reactions at different time points. Unless otherwise stated, time course assays were carried out in triplicate. In some cases, LC–MS was used instead of MALDI-TOF MS to avoid a MALDI matrix induced artefact with the hydroxylated product (Supplementary Fig. 16). […]
Supplementary Figure 2 Histone H2a peptide fragments are substrates of KDM4s and KDM5s.
2 for representative corresponding MALDI–TOF MS traces. Bar graphs comparing % product format ion (+16 Da and demethylation) of H2a(1–20)R3me2a by (a) K DM5 A–D (after 90 minutes) and (b) KDM4A–E ( a ft er 60 minutes), analysed by MALDI– TOF MS. n = (a) 2, (b) 3 (independent assays). See Supplementary Table 6 for assay condit ions. See Figure S13 A 1 for a positive control.
(also on this page, place not known: formation KDM5A–D (after MALDI–TOF conditions. Figure S13A1 KDM4A KDM4B KDM4C KDM4D KDM4E 80% product formation KDM5A KDM5B KDM5C KDM5D % product formation) […]
[ E nz ym e] [Peptide] [2OG] [Ascorbate] [(NH4)2F e(S O4)2] [TCEP] Buffer pH7.5 Enzyme Cognate substrate (mM) (mM) (mM) (mM) (mM) (mM) [HE PE S]
Supplementary Table 6 Summary of MS assay conditions for substrate screening. These conditions enabled efficient turnover of established substrates. Reactions were carried out at 37 °C unless otherwise st ated. […]

Substance: Ac - SGR [ me 2a ] GKQ GGKAR AKAKT R SSR [H2a(1–20)R3me2a, H2a(1–20)R3me2a without a biotin tag]
- % product formation ([1]; replicate 1): 19.2569%
- % product formation ([1]; replicate 2): 31.6947%
- % product formation ([1]; replicate 3): 39.2291%
- –14 Da mass shift (demethylation) ([1]; MALDI–TOF MS, n = 3): –14 Da mass shifts
- +16 Da (% product formation) ([2]; replicate 1): 0%
- demethylation (% product formation) ([2]; replicate 1): 52.427%
- +16 Da (% product formation) ([2]; replicate 2): 0%
- demethylation (% product formation) ([2]; replicate 2): 53.348%
